# Measurements from patent publication US20170340648A1, “Pharmaceutical Compositions Affecting Bioenergetic Processes in a Eukaryotic Biological System and Methods of Treatment” (JOYCE BIOTECH CORP., priority 2016, published 2017).
# Entries after “also recorded” stand apart in the source; their conditions may differ.
# Tests used:
# [1] = rat, in vivo; cited from earlier work
# C2C12 murine myoblasts = assay type: cell-based
# Description: In the experiment, immortalized murine C2C12 myoblast cells were exposed to various pre-assay growth conditions prior to being seeded into a Seahorse XF24 Extracellular Flux Analyzer cell culture plate. The basal oxygen consumption (OCR) and extracellular acidification (ECAR) rates were measured to establish baseline metabolic rates for each experimental culture condition. The cells were then metabolically perturbed by the successive addition of three different compounds that shift the bioenergetic profile of the cell.
# The first compound added following the collection of baseline metabolic data was oligomycin.
# The second agent injected, carbonyl cyanide-p-trifluoromethoxyphenylhydrazone (FCCP), is an ionophore that is a mobile ion carrier.
# Rotenone, a Complex I inhibitor, is the third agent injected in sequence, it prevents the transfer of electrons from the Fe—S center in Complex I to ubiquinone (Coenzyme Q).
# Rotenone exposure inhibits mitochondrial respiration and enables both the mitochondrial and non-mitochondrial fractions contributing to respiration to be calculated.
# Statistical analysis was conducted via two-tailed Mann-Whitney U test of variance. U and P values were calculated using algorithms supplied by the Meta Numerics and ALGLIB statistical libraries. During calculations, when the value of N (the number of scores) was equal to or greater than 10, it was assumed that the sampling distribution was approximately normal, and a Z-ratio was also employed to calculate the value of P. The threshold for significance was set at P≦to 0.05 (Table 27A1 to Table 27F2).
# C2C12 murine myoblast cells were placed into pre-assay growth condition categories and cultured for 24 hours.
# CSC12 murine myoblast cells were seeded into a Seahorse XF24 24 well culture plate at a density of 10,000 cells/well in 100 microliters of Growth Medium.
# The seeded XF24 culture plates were placed into a 37 degree Centigrade incubator at 10% CO2 for 24 hours. […]
# glucocorticoid receptors = details: cultured cells; cited from earlier work
smiles,measurement,setting,value
O=CC[C@@H](O)[C@H](O)[C@H](O)CO [2-Deoxy-d-Glucose],cardiac toxicity,[1],cardiotoxicity
C=C(C)[C@H]1Cc2c(ccc3c2O[C@@H]2COc4cc(OC)c(OC)cc4[C@@H]2C3=O)O1 [Rotenone],oxygen consumption rate (OCR) relative to Control condition,"C2C12 murine myoblasts; 24 h pre-assay incubation for compositions, Rotenone 2.0 μM injected, basal and FCCP conditions",significantly reduced; also recorded: decreased
same,anaerobic metabolic activity as indicated by extracellular acidification rate (ECAR) relative to untreated control,"C2C12 murine myoblasts; basal, Met/Mife 25 uM/50 uM (Table 27A1), MET/KET 1 mM/50 uM (Table 27F3), Rotenone 2.0 μM",increased
CC(=O)N1CCN(c2ccc(OCC3COC(Cn4ccnc4)(c4ccc(Cl)cc4Cl)O3)cc2)CC1 (stereo not shown) [ketoconazole],glucocorticoid receptor activity,glucocorticoid receptors,antagonist
